Laboratory results from patent publication US20100029620A1, “SUBSTITUTED TRIAZOLINE, TETRAZOLONE AND IMIDAZOLONE DERIVATIVES FOR USE AS A MEDICINE” (JANSSEN PHARMACEUTICA N.V., priority 2004, published 2010).

Experiments:
[1] = target: T1, human adrenergic-α2A receptor (Homo sapiens, UniProt P08913); experiment: Radioligand binding experiment for α2A-adrenoceptor ([3H]-raulwolscine competition, CHO cell membranes); conditions: [3H]raulwolscine 1 nM, membranes of CHO cells transfected with human α2A receptor; read-out: pIC50 α2A (converted)
T1 construct: expressed in transfected cells; membrane preparation
T1 sequence (P08913 1-465): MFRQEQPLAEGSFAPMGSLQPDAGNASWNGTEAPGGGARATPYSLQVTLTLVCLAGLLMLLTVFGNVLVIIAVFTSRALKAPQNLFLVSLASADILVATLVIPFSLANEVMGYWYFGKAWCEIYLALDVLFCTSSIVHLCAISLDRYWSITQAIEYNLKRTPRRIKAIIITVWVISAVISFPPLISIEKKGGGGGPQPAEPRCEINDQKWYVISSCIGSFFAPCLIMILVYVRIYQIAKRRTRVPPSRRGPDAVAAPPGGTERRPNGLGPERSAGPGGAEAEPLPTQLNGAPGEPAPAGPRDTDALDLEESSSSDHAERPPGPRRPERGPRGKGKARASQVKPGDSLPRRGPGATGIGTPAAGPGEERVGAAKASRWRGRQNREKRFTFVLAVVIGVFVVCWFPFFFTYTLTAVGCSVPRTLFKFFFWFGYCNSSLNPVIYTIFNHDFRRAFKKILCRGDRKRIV
Experimental: (§1) The interaction of the compounds of Formula (I) with α2C-adrenoceptor receptors was assessed in in vitro radioligand binding experiments. In general, a low concentration of a radioligand with a high binding affinity for a particular receptor or transporter is incubated with a sample of a tissue preparation enriched in a particular receptor or transporter or with a preparation of cells expressing cloned human receptors in a buffered medium. During the incubation, the radioligand binds to the receptor or transporter. When equilibrium of binding is reached, the receptor bound radioactivity is separated from the non-bound radioactivity, and the receptor- or transporter-bound activity is counted. The interaction of the test compounds with the receptor is assessed in competition binding experiments. Various concentrations of the test compound are added to the incubation mixture containing the receptor- or transporter preparation and the radioligand. The test compound in proportion to its binding affinity and its concentration inhibits binding of the radioligand. The radioligand used for […] receptor binding was [^3H]-raulwolscine.
(§2) CHO cells, stabile transfected with human adrenergic-α2A-, -α2B or α2C receptor cDNA, were cultured in Dulbecco's Modified Eagle's Medium (DMEM)/Nutrient mixture Ham's F12 (ratio 1:1)(Gibco, Gent-Belgium) supplemented with 10% heat inactivated fetal calf serum (Life Technologies, Merelbeke-Belgium) and antibiotics (100 IU/ml penicillin G, 100 μg/ml streptomycin sulphate, 110 μg/ml pyruvic acid and 100 μg/ml L-glutamine). One day before collection, cells were induced with 5 mM sodiumbutyrate. Upon 80-90% of confluence, cells were scraped in phosphate buffered saline without Ca^2+ and Mg^2+ and collected by centrifugation at 1500×g for 10 min. The cells were homogenised in Tris-HCl 50 mM using an Ultraturrax homogenizer and centrifuged for 10 min at 23,500×g. The pellet was washed once by resuspension and rehomogenization and the final pellet was resuspended in Tris-HCl, divided in 1 ml aliquots and stored at −70° C.
(§3) Membranes were thawed and re-homogenized in incubation buffer (glycylglycine 25 mM, pH 8.0). In a total volume of 500 μl, 2-10 μg protein was incubated with [^3H]raulwolscine (NET-722) (New England Nuclear, USA) (1 nM final concentration) with or without competitor for 60 min at 25° C. followed by rapid filtration over GF/B filter using a Filtermate196 harvester (Packard, Meriden, Conn.). Filters were rinsed extensively with ice-cold rinsing buffer (Tris-HCl 50 mM pH 7.4). Filter-bound radioactivity was determined by scintillation counting in a Topcount (Packard, Meriden, CT) and results were expressed as counts per minute (cpm). Non-specific binding was determined in the presence of 1 μM oxymetazoline for hα2A- and hα2B receptors and 1 μM spiroxatrine for hα2C receptors.
(§4) Data from assays in the presence of compound were calculated as a percentage of total binding measured in the absence of test compound. Inhibition curves, plotting percent of total binding versus the log value of the concentration of the test compound, were automatically generated, and sigmoidal inhibition curves were fitted using non-linear regression. The pIC50 values of test compounds were derived from individual curves.

[2] = target: T2, human adrenergic-α2C receptor (Homo sapiens, UniProt P18825); experiment: Radioligand binding experiment for α2C-adrenoceptor ([3H]-raulwolscine competition, CHO cell membranes); conditions: [3H]raulwolscine 1 nM, membranes of CHO cells transfected with human α2C receptor; read-out: pIC50 α2C (converted)
T2 construct: expressed in transfected cells; membrane preparation
T2 sequence (P18825 1-462): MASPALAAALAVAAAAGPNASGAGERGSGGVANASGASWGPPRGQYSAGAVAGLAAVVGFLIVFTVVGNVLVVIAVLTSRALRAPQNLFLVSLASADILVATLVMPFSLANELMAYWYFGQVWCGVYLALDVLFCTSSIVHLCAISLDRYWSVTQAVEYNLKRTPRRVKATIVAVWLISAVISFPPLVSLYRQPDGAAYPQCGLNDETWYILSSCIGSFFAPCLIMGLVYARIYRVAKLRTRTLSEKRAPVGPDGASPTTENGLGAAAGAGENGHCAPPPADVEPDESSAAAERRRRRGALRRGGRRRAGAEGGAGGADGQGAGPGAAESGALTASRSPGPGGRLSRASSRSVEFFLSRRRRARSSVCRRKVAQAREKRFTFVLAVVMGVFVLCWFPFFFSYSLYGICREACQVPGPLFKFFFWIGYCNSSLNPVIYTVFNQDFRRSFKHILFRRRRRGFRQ
Experimental: as §1, §2, §3, §4

[3] = target: T3, human adrenergic-α2B receptor (Homo sapiens, UniProt P18089); experiment: Radioligand binding experiment for α2B-adrenoceptor ([3H]-raulwolscine competition, CHO cell membranes); conditions: [3H]raulwolscine 1 nM, membranes of CHO cells transfected with human α2B receptor; read-out: pIC50 α2B (converted)
T3 construct: expressed in transfected cells; membrane preparation
T3 sequence (P18089 1-450): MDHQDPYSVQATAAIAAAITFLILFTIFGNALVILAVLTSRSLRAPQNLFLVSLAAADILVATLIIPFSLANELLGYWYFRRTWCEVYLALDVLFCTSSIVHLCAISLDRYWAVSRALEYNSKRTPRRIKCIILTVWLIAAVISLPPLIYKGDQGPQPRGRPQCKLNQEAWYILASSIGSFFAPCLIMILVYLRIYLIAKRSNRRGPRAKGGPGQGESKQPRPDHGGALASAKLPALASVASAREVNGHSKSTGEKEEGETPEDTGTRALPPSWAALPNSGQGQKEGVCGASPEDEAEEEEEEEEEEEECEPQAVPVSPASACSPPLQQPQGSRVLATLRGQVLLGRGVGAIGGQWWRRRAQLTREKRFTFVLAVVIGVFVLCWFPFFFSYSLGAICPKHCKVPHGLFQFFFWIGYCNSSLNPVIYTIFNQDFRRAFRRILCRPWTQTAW
Experimental: as §1, §2, §3, §4

SMILES	IC50 [1] [nM]	IC50 [2] [nM]	IC50 [3] [nM]
C/C(=C\c1ccc(F)cc1)CN1CCN(CCn2ncn(Cc3ccc(CN)cc3)c2=O)CC1 [compound 35]	126	50.1	
C/C(=C\c1ccccc1)CN1CCC(n2ncn(-c3ccc(CN4CCOCC4)cc3)c2=O)CC1 [compound 69]	158	25.1	
C/C(=C\c1ccccc1)CN1CCC(Cn2ncn(-c3ccc(CN4CCOCC4)cc3)c2=O)CC1 [compound 70]	398	39.8	
O=c1n(-c2ccc(CN3CCOCC3)cc2)cnn1CC1CCN(Cc2ccc3ccccc3c2)CC1 [compound 74]	794	158	
Cc1cc(CN2CCC(Cn3ncn(-c4ccc(CN5CCOCC5)cc4)c3=O)CC2)oc1C [compound 76]	> 10000	794	
O=c1n(-c2ccc(CN3CCOCC3)cc2)cnn1CC1CCN(Cc2cc3ccccc3o2)CC1 [compound 77]	3160	251	
C/C(=C\c1ccccc1)CN1CCC(n2cnn(-c3ccc(CN4CCOCC4)cc3)c2=O)CC1 [compound 80]	63.1	39.8	
C/C(=C\c1ccccc1)CN1CCC(n2cnn(Cc3ccc(CN4CCOCC4)cc3)c2=O)CC1 [compound 81]	631	79.4	
O=c1n(CCNCCOc2ccccc2)nnn1-c1ccc(CN2CCOCC2)cc1 [compound 106]	398	39.8	
N#Cc1cccc(NCCCN2CCN(CCn3ncn(CC4CCN(CCOc5ccccc5)CC4)c3=O)CC2)c1 [compound 124]	63.1	1.58	
O=c1n(CC2CCN(CCOc3ccccc3)CC2)cnn1CCN1CCN(Cc2ccc3ncccc3c2)CC1 [compound 126]	200	12.6	
O=c1n(CC2CCN(CCOc3ccccc3)CC2)cnn1CCN1CCN(c2cccc3c2OCCO3)CC1 [compound 127]	63.1	3.98	
O=c1n(CC2CCN(CCOc3ccccc3)CC2)cnn1CCN1CCN(Cc2cc3ccccc3[nH]2)CC1 [compound 128]	79.4	12.6	
O=c1n(CC2CCN(CCOc3ccccc3)CC2)cnn1CCN1CCN(Cc2c[nH]c3ccc(F)cc23)CC1 [compound 129]	50.1	2	
O=c1n(CC2CCN(CCOc3ccccc3)CC2)cnn1CCN1CCN(Cc2cc3ccccc3s2)CC1 [compound 130]	50.1	2.51	
O=c1n(CC2CCN(CCOc3ccccc3)CC2)cnn1CCN1CC2CC=CCC1CN2c1ccc2ccccc2c1 (stereo not drawn) [compound 131]	126	7.94	
CC(C)(C)C(=O)Cn1cnn(CC2CCN(CCOc3ccccc3)CC2)c1=O [compound 132]	63.1	5.01	

Results, then the molecule that gave them:

IC50 [1] [nM]	IC50 [2] [nM]	IC50 [3] [nM]	SMILES
501	10	501	CC(NCCOc1ccccc1)C(C)n1ncn(-c2ccc(N3CCN(c4ccc(O)cc4)CC3)cc2)c1=O (racemic) [compound 5]
2510	6.31	200	CC(NCCOc1ccccc1)C(C)n1ncn(-c2ccc(N3CCN(c4ccc(O)cc4)CC3)cc2)c1=O (single isomer, unassigned) [compound 4]
7940	200		CC(NCCOc1ccccc1)C(C)n1ncn(-c2ccc(N3CCN(c4ccc(O)cc4)CC3)cc2)c1=O (single isomer, unassigned) [compound 6]
126	7.94	126	CC(NCCOc1ccccc1)C(C)n1ncn(-c2ccc(N3CCN(c4ccc(O)cc4)CC3)cc2)c1=O (single isomer, unassigned) [compound 7]
200	25.1	200	O=c1n(-c2ccc(CN3CCN(c4ccccc4)CC3)cc2)cnn1CCNCCOc1ccccc1 [compound 2]
398	15.8	251	O=c1n(-c2ccc(N3CCN(Cc4ccccc4)CC3)cc2)cnn1CCNCCOc1ccccc1 [compound 3]
631	15.8	158	COc1ccc(N2CCN(c3ccc(-n4cnn(CCNCCOc5ccccc5)c4=O)cc3)CC2)cc1 [compound 8]
> 10000	794		COc1ccc(N2CCN(c3ccc(-n4cnn(CCN(C)CCOc5ccccc5)c4=O)cc3)CC2)cc1 [compound 9]
631	15.8	501	COc1ccc(N2CCN(c3ccc(-n4cnn(C(C)C(C)NCCOc5ccccc5)c4=O)cc3)CC2)cc1 (stereo not drawn) [compound 10]
7940	794		COc1ccc(N2CCN(c3ccc(-n4cnn(Cc5ccc(CN)cc5)c4=O)cc3)CC2)cc1 [compound 11]
794	100		COc1ccccc1C1CCN(c2ccc(-n3cnn(CCNCCOc4ccccc4)c3=O)cc2)C1 (stereo not drawn) [compound 15]
794	50.1		O=c1n(-c2ccc(N3CCOCC3)cc2)cnn1CCNCCOc1ccccc1 [compound 22]
2510	50.1		O=c1n(-c2ccc(CN3CCOCC3)cc2)cnn1CCNCCOc1ccc(F)cc1 [compound 25]
> 10000	1000		COc1ccc(N2CCN(c3ccc(-n4cnn(C5CCN(Cc6ccc7c(c6)OCCO7)CC5)c4=O)cc3)CC2)cc1 [compound 56]
> 10000	79.4		COc1ccc(N2CCN(c3ccc(-n4cnn(C5CCN(C/C(C)=C/c6ccccc6)CC5)c4=O)cc3)CC2)cc1 [compound 57]
1260	50.1		COc1ccc(N2CCN(c3ccc(-n4cnn(C5CCN(CCOc6ccccc6)CC5)c4=O)cc3)CC2)cc1 [compound 58]
1580	631		COc1ccc(N2CCN(c3ccc(-n4cnn(Cc5ccc(CN6CCOCC6)cc5)c4=O)cc3)CC2)cc1 [compound 59]
